Test results: publication PMC10609013, “Solubility and Thermodynamic Analysis of Isotretinoin in Different (DMSO + Water) Mixtures” (Molecules, 2023)

Experiment: Apparent thermodynamic analysis of ITN dissolution (van't Hoff and Gibbs equations)
Assay type: physicochemical
Protocol: At the mean harmonic temperature (Thm), all apparent thermodynamic parameters for ITN were determined. The Thm was determined using the reported equation [51, 56]. […] The “van’t Hoff and Gibbs equations” were used to calculate these parameters. The ΔsolH^0 values for ITN (3) in various {DMSO (1) + H2O (2)} mixtures were calculated using Equation (10) and Thm = 308 K [47, 62]:(10) ∂lnxe/∂1/T−1/ThmP=−∆solH^0/R
The “ΔsolH^0” for ITN was derived using the graphed “van’t Hoff” plots between the ln xe values of ITN and 1/T−1/Thm .
Additionally, at Thm = 308 K, the ΔsolG^0 for ITN (3) in binary {DMSO (1) + H2O (2)} mixes was calculated using the Krug et al. methodology via Equation (11):(11) ∆solG^0=−RThm×intercept where, the “van’t Hoff plots” shown in Figure 5 were used to determine the intercept values for ITN (3) in binary mixtures of DMSO (1) and H2O (2).
By Equation (12), the ΔsolS^0 for ITN (3) in numerous {DMSO (1) + H2O (2)} mixtures was derived:(12) ∆solS^0=∆solH^0−∆solG^0/Thm

[1] = DMSO mass fraction m = 0.0, Thm = 308 K
[2] = DMSO mass fraction m = 0.1, Thm = 308 K
[3] = DMSO mass fraction m = 0.2, Thm = 308 K
[4] = DMSO mass fraction m = 0.3, Thm = 308 K
[5] = DMSO mass fraction m = 0.4, Thm = 308 K
[6] = DMSO mass fraction m = 0.5, Thm = 308 K
[7] = DMSO mass fraction m = 0.6, Thm = 308 K
[8] = DMSO mass fraction m = 0.7, Thm = 308 K
[9] = DMSO mass fraction m = 0.8, Thm = 308 K
[10] = DMSO mass fraction m = 0.9, Thm = 308 K
[11] = DMSO mass fraction m = 1.0, Thm = 308 K

CC1=C(/C=C/C(C)=C/C=C/C(C)=C\C(=O)O)C(C)(C)CCC1 [ITN, isotretinoin]
ΔsolG^0 apparent standard Gibbs energy [1]: 36.27 (0.43) kJ mol^−1 | ΔsolH^0 apparent standard enthalpy [1]: 63.00 (0.76) kJ mol^−1 | ΔsolS^0 apparent standard entropy [1]: 86.78 (1.12) J mol^−1 K^−1 | ΔsolG^0 apparent standard Gibbs energy [2]: 33.20 (0.41) kJ mol^−1 | ΔsolH^0 apparent standard enthalpy [2]: 57.15 (0.67) kJ mol^−1 | ΔsolS^0 apparent standard entropy [2]: 77.75 (1.03) J mol^−1 K^−1 | ΔsolG^0 apparent standard Gibbs energy [3]: 30.19 (0.39) kJ mol^−1 | ΔsolH^0 apparent standard enthalpy [3]: 52.98 (0.63) kJ mol^−1 | ΔsolS^0 apparent standard entropy [3]: 73.99 (1.00) J mol^−1 K^−1 | ΔsolG^0 apparent standard Gibbs energy [4]: 27.15 (0.37) kJ mol^−1 | ΔsolH^0 apparent standard enthalpy [4]: 46.19 (0.52) kJ mol^−1 | ΔsolS^0 apparent standard entropy [4]: 61.83 (0.98) J mol^−1 K^−1 | ΔsolG^0 apparent standard Gibbs energy [5]: 24.14 (0.36) kJ mol^−1 | ΔsolH^0 apparent standard enthalpy [5]: 41.89 (0.48) kJ mol^−1 | ΔsolS^0 apparent standard entropy [5]: 57.59 (0.92) J mol^−1 K^−1 | ΔsolG^0 apparent standard Gibbs energy [6]: 21.13 (0.30) kJ mol^−1 | ΔsolH^0 apparent standard enthalpy [6]: 35.40 (0.42) kJ mol^−1 | ΔsolS^0 apparent standard entropy [6]: 46.31 (0.81) J mol^−1 K^−1 | ΔsolG^0 apparent standard Gibbs energy [7]: 18.10 (0.26) kJ mol^−1 | ΔsolH^0 apparent standard enthalpy [7]: 31.28 (0.40) kJ mol^−1 | ΔsolS^0 apparent standard entropy [7]: 42.78 (0.74) J mol^−1 K^−1 | ΔsolG^0 apparent standard Gibbs energy [8]: 15.10 (0.24) kJ mol^−1 | ΔsolH^0 apparent standard enthalpy [8]: 23.95 (0.32) kJ mol^−1 | ΔsolS^0 apparent standard entropy [8]: 28.74 (0.56) J mol^−1 K^−1 | ΔsolG^0 apparent standard Gibbs energy [9]: 12.07 (0.20) kJ mol^−1 | ΔsolH^0 apparent standard enthalpy [9]: 20.05 (0.28) kJ mol^−1 | ΔsolS^0 apparent standard entropy [9]: 25.90 (0.48) J mol^−1 K^−1 | ΔsolG^0 apparent standard Gibbs energy [10]: 9.078 (0.14) kJ mol^−1 | ΔsolH^0 apparent standard enthalpy [10]: 13.35 (0.22) kJ mol^−1 | ΔsolS^0 apparent standard entropy [10]: 13.87 (0.23) J mol^−1 K^−1 | ΔsolG^0 apparent standard Gibbs energy [11]: 6.077 (0.09) kJ mol^−1 | ΔsolH^0 apparent standard enthalpy [11]: 7.430 (0.10) kJ mol^−1 | ΔsolS^0 apparent standard entropy [11]: 4.392 (0.10) J mol^−1 K^−1 | nature of dissolution (all {DMSO (1) + H2O (2)} mixes, including neat DMSO and H2O): endothermic and entropy-driven
